# Test results reported in patent publication US20260043020A1, “BINDING MEMBERS WITH ALTERED DIVERSITY SCAFFOLD DOMAINS” (priority 2016, published 2026).
# Molecular target: T1, trypsin (Bos taurus, UniProt P00760)
# T1 construct: gene PRSS1
# T1 sequence (P00760 24-246): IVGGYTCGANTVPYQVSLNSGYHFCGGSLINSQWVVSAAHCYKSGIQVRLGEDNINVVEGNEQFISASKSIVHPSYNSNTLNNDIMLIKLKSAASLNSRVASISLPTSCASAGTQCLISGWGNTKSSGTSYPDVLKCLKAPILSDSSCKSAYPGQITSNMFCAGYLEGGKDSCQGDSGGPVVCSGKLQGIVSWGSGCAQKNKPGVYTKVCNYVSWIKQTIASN
# Assay: Polyclonal phage TRF binding assay on trypsin
# Settings: phage display; direct gene-III fusion or round-2 polyclonal phage
# Description: Phage display technology facilitates isolation of binders to any given target from large combinatorial repertoires based on proteins and peptides that can be presented on the surface of filamentous phage^105. In order to isolate functional knottin-antibody fusions from the KnotBody libraries multiple rounds of phage display selections on trypsin (cognate antigen for the EETI-II donor) were carried out. Phage particles were prepared by rescuing KnotBody libraries using trypsin cleavable helper phage^102,106Two rounds of phage display selections were performed on 10 μg/ml biotinylated trypsin immobilised on Streptavidin (for Round-1) or Neutravidin (for round-2) coated Maxisorp™ immunotubes (Thermo Scientific, Cat No. 444202). In both rounds of selection, phage libraries were pre-incubated with streptavidin coated paramagnetic beads (Thermo Fisher Scientific, Cat. No. 11205D). […] Polyclonal phage preparations from round-2 selection outputs were analysed for trypsin binding using a time resolved fluorescence (TRF) binding assay. In this assay, polyclonal phage binding to biotinylated trypsin immobilised on neutravidin (Thermo Fisher Scientific, Cat. No 31000) coated Maxisorp™ plates (Thermo Scientific, Cat. No. 437111) was detected using a mouse anti-M13 antibody (GE Healthcare, Cat. No. 27-9420-01) followed by europium conjugated anti-mouse antibody (Perkin Elmer, Cat. No. AD0124). […]
substance,measurement,value
EETI-II,phage binding to trypsin,no detectable binding
